Reference: ChEMBL document CHEMBL1122653, “Substituted (omega-aminoalkoxy) stilbene derivatives as a new class of anticonvulsants” (1984)

Columns and labels:
Mus musculus [1] = assay: Ability to suppress maximal electroshock induced tonic extensor convulsion in mice after oral administration at 50 mg/kg; assay type: functional
Mus musculus [2] = assay: Ability to suppress PTZ (pentylenetetrazole ) induced tonic extensor convulsion in mice after oral administration at a dose 50 mg/kg; assay type: functional
Mus musculus [3] = assay: Ability to suppress PTZ (pentylenetetrazole) induced tonic extensor convulsion in mice after oral administration at a dose 50 mg/kg; assay type: functional
Mus musculus [4] = assay: Ability to suppress PTZ (pentylenetetrazole) induced tonic extensor convulsion in mice after oral administration of the compound; assay type: functional
Mus musculus [5] = assay: Ability to suppress MES (maximal electroshock ) induced tonic extensor convulsion in mice after oral administration of the compound; assay type: functional
Mus musculus [6] = assay: Ability to suppress PTZ (pentylenetetrazole ) induced tonic extensor convulsion in mice after oral administration of the compound; assay type: functional
Mus musculus [7] = assay: Ability to suppress MES (maximal electroshock ) induced tonic extensor convulsion in mice after oral administration at a dose 100 mg/kg; assay type: functional
Mus musculus [8] = assay: Ability to suppress PTZ (pentylenetetrazole) induced tonic extensor convulsion in mice after oral administration at a dose 25 mg/kg; assay type: functional
Mus musculus [9] = assay: Ability to suppress MES (maximal electroshock) induced tonic extensor convulsion in mice after oral administration at a dose 50 mg/kg; assay type: functional
Rattus norvegicus [10] = organism: Rattus norvegicus; assay: Ability to suppress PTZ (convulsions seizures in male Wistar rats; assay type: functional
Rattus norvegicus [11] = organism: Rattus norvegicus; assay: Muscle-relaxant action in vertical screen method; assay type: functional
Rattus norvegicus [12] = organism: Rattus norvegicus; assay: Ability to suppress MES ( maximal electroshock ) induced seizures in male Wistar rats; assay type: functional
[13] = Ratio of the dose showing muscle relaxant action in rats and the dose suppressing MES induced seizures in rats; assay type: functional
Rattus norvegicus [14] = organism: Rattus norvegicus; assay: Muscle-relaxant action in vertical screen method.; assay type: functional
Rattus norvegicus [15] = organism: Rattus norvegicus; assay: Ratio of the dose showing muscle relaxant action in rats and the dose suppressing MES induced seizures in rats
Rattus norvegicus [16] = organism: Rattus norvegicus; assay: Ability to suppress PTZ (pentylenetetrazole) induced clonic convulsions seizures in male Wistar rats; assay type: functional
Rattus norvegicus [17] = organism: Rattus norvegicus; assay: Ability to suppress MES (maximal electroshock) induced seizures in male Wistar rats; assay type: functional

Structure (SMILES)	inhibition in vivo at 50 mg/kg (Mus musculus [1])	inhibition in vivo at 50 mg/kg (Mus musculus [2])	other results
CCCOC1CCCN(CCCCOc2ccccc2/C=C/c2ccccc2)C1 (stereo not given)	0%		
CCN1CCN(CCCCOc2ccccc2/C=C/c2ccccc2)CC1	33.3%		
O=C(O)C1CCCN(CCCCOc2ccccc2/C=C/c2ccccc2)C1 (stereo not given)	12.5%		
CN1CCN(CCCCOc2ccccc2/C=C/c2cccc(Cl)c2)CC1	0%	50%	
CN(C)CCCOc1ccccc1/C=C/c1ccccc1	14.2%		inhibition in vivo at 50 mg/kg (Mus musculus [3]): 87.5%
COc1ccccc1/C=C/c1ccccc1OCCCCN(C)C	0%	62.5%	
CN(C)CCOc1ccccc1/C=C/c1ccccc1			inhibition in vivo at 50 mg/kg (Mus musculus [3]): 75%
OC1CCCN(CCCCOc2ccccc2/C=C/c2cccc(Cl)c2)C1 (stereo not given)	12.5%		
CC(=O)OC1CCCN(CCCCOc2ccccc2/C=C/c2ccccc2)C1.Cl (stereo not given)			ED50 (Mus musculus [4]): 7.9 mg/kg; ED50 (Mus musculus [5]): 18.7 mg/kg
CN(C)CCCCOc1ccccc1/C=C/c1cccc(F)c1		12.5%	
COc1cccc(OCCCCN2CCN(C)CC2)c1/C=C/c1ccccc1.Cl.Cl	42.9%		ED50 (Mus musculus [6]): 50 mg/kg
C(=C\c1ccccc1OCCCCN1CCOCC1)/c1ccccc1	14.3%	87.5%	
C(=C\c1ccccc1OCCCCN1CCCCC1)/c1ccccc1	42.9%		inhibition in vivo at 50 mg/kg (Mus musculus [3]): 100%
OCC1CCCN(CCCCOc2ccccc2/C=C/c2ccccc2)C1 (stereo not given)	12.5%		
CN(C)CCCCOc1cccc(/C=C/c2ccccc2)c1	0%		
CN(C)CCCCOc1ccccc1/C=C/c1ccccc1F		17%	
COc1cccc(/C=C/c2ccccc2)c1OCCCCN(C)C	57.1%		ED50 (Mus musculus [6]): 21.6 mg/kg
NC(=O)C1CCCN(CCCCOc2ccccc2/C=C/c2ccccc2)C1 (stereo not given)	0%		
Cc1ccccc1/C=C/c1ccccc1OCCCCN(C)C		16.7%	
C(=C\c1ccccc1OCCCCN1CCCC1)/c1ccccc1	42.9%	87.5%	
CN(C)CCCCOc1ccccc1/C=C/c1ccc(F)cc1.Cl			inhibition in vivo at 100 mg/kg (Mus musculus [7]): 14.3%; ED50 (Mus musculus [6]): 15.4 mg/kg
Cl.OC1CCCN(CCCCOc2ccccc2/C=C/c2cccc(F)c2)C1 (stereo not given)			ED50 (Mus musculus [5]): 38 mg/kg
OC1CCN(CCCCOc2ccccc2/C=C/c2ccccc2)CC1	0%	50%	
CC(=O)N1CCN(CCCCOc2ccccc2/C=C/c2ccccc2)CC1	0%	12.5%	
CN(C)CCN(C)CCCCOc1ccccc1/C=C/c1ccccc1	0%		

Structure (SMILES)	inhibition in vivo at 50 mg/kg (Mus musculus [1])	inhibition in vivo at 50 mg/kg (Mus musculus [2])	other results
COC1CCCN(CCCCOc2ccccc2/C=C/c2ccccc2)C1.Cl (stereo not given)			ED50 (Mus musculus [4]): 9.3 mg/kg; ED50 (Mus musculus [5]): 12.6 mg/kg
CNCCCCOc1ccccc1/C=C/c1ccccc1.Cl			ED50 (Mus musculus [5]): 118 mg/kg
OC1CCCN(CCCCOc2ccc(Cl)cc2/C=C/c2ccccc2)C1 (stereo not given)	12.5%		
Cl.OC1CCCN(CCCCOc2ccccc2/C=C/c2ccc(F)cc2)C1 (stereo not given)			ED50 (Mus musculus [4]): 8.8 mg/kg; ED50 (Mus musculus [5]): 21.9 mg/kg
CN(C)CCCCCOc1ccccc1/C=C/c1ccccc1			inhibition in vivo at 25 mg/kg (Mus musculus [8]): 75%; inhibition in vivo at 100 mg/kg (Mus musculus [7]): 81%
CN(C)CCCCOc1ccccc1/C=C/c1cccc(Cl)c1	14.3%	23.9%	
COC(=O)C1CCCN(CCCCOc2ccccc2/C=C/c2ccccc2)C1 (stereo not given)	0%		
CN(C)CCCCOc1ccccc1/C=C/c1ccccc1Cl	14.3%	50%	
CN1CCN(CCCCOc2ccccc2/C=C/c2ccccc2)CC1.Cl.Cl			inhibition in vivo at 50 mg/kg (Mus musculus [9]): 0%; ED50 (Mus musculus [6]): 11.1 mg/kg; ED50 (Mus musculus [5]): 31.1 mg/kg
CN(C)CCCCOc1ccc(/C=C/c2ccccc2)cc1	12.5%		
CN1CCN(CCCCOc2ccccc2/C=C/c2ccc(F)cc2)CC1.Cl.Cl			ED50 (Mus musculus [6]): 17.7 mg/kg; ED50 (Mus musculus [5]): 39 mg/kg
CCN(CC)CCCCOc1ccccc1/C=C/c1ccccc1.Cl			ED50 (Mus musculus [6]): 11.5 mg/kg; ED50 (Mus musculus [5]): 82 mg/kg
CN1CCN(CCCCOc2ccccc2/C=C/c2ccccc2F)CC1	0%		
CN(C)CCCCOc1ccccc1/C=C/c1ccc(Cl)cc1	0%	62.5%	
COC1CCCN(CCCCOc2ccccc2/C=C/c2ccc(F)cc2)C1 (stereo not given)	12.5%		
C(=C\c1ccccc1OCCCCN1CCNCC1)/c1ccccc1	0%	0%	
O=C1NC(=O)C(c2ccccc2)(c2ccccc2)N1 [PHENYTOIN]			ED50 (Rattus norvegicus [10]): 250 mg/kg; ED50 (Rattus norvegicus [11]): > 250 mg/kg; ED50 (Rattus norvegicus [12]): 40 mg/kg; Therapeutic index [13]: >6.25
CCCN1CCN(CCCCOc2ccccc2/C=C/c2ccccc2)CC1	42.9%	87.5%	
NC(=O)N1c2ccccc2C=Cc2ccccc21 [CARBAMAZEPINE]			ED50 (Rattus norvegicus [14]): 120 mg/kg; Therapeutic index (Rattus norvegicus [15]): 3.75; ED50 (Rattus norvegicus [16]): 300 mg/kg; ED50 (Rattus norvegicus [17]): 32 mg/kg
Cl.OC1CCCN(CCCCOc2ccccc2/C=C/c2ccccc2)C1 (stereo not given)			ED50 (Rattus norvegicus [14]): > 300 mg/kg; ED50 (Rattus norvegicus [12]): 12.5 mg/kg; ED50 (Rattus norvegicus [16]): 248 mg/kg; ED50 (Mus musculus [5]): 20 mg/kg; Therapeutic index [13]: >24
CCCN(CCC)CCCCOc1ccccc1/C=C/c1ccccc1	0%		
CCOC1CCCN(CCCCOc2ccccc2/C=C/c2ccccc2)C1.Cl (stereo not given)			ED50 (Mus musculus [4]): 9.8 mg/kg; ED50 (Mus musculus [5]): 17.5 mg/kg
CN1CCN(CCCCOc2ccccc2/C=C/c2ccc(Cl)c(Cl)c2)CC1	0%	0%	
CC1CCCN(CCCCOc2ccccc2/C=C/c2ccccc2)C1 (stereo not given)	12.5%		
